In patent US9789096B2, “Methods and compositions for selective and targeted cancer therapy” (Board of Regents of the University of Texas System, priority 2013, dated 2017):

system: HBEC30KT; assay: Cell viability (ATP, Cell Titer Glo, 4 days), HBEC30KT; assay type: cell-based, human; conditions: Homo sapiens, Tables 3 and 4; read-out: HBEC30KT IC50
Protocol: (§1) FIG. 6A. […] Cell viability is plotted vs. compound concentration. Compound was added to cells plated at 15% confluence in 96-well plates in RPMI-1640 media supplemented with 5% Fetal Bovine Serum and 2 mM L-Glutamine. After 4 days of incubation, ATP levels were measured using Cell Titer Glo (Promega). Data are presented as the average of 2 replicates ±SEM.
(§2) Selectivity may be measured by the half maximal inhibitory concentration (IC50), which, as used herein, is a measure of the effectiveness of a compound in killing cells. This quantitative measure indicates how much of a particular compound is needed to kill a particular cell population by half (e.g., as indicated by the amount of ATP). […] The IC50 can be determined by constructing a dose-response curve. The lower the IC50, the higher the potency, and the greater the difference between IC50 values for different cell lines (e.g., sensitive lines vs. insensitive lines, and sensitive lines vs. normal lines) the greater the selectivity. […]

| Compound | IC50 [µM] |
| --- | --- |
| COc1ccc2nc(NC(=O)c3ccc([N+](=O)[O-])cc3)sc2c1 [SW001282-2] | 49.2 |
| O=C(Nc1ccc(F)cc1)c1sc2ccccc2c1Cl [SW006505] | 63.9 |
| O=C(Nc1cccc(NC(=O)c2sc3ccccc3c2Cl)c1)c1ccco1 [SW023008-2] | 82.5 |
| O=C(Nc1cccc(NC(=O)c2sc3ccccc3c2Cl)c1)c1cccc(Cl)c1 [SW023441-2] | 31.8 |
| CCOC(=O)c1c(NC(=O)c2ccc([N+](=O)[O-])cc2)sc2c1CCCC2 [SW108364-2] | 35.2 |
| NC(=O)c1c(NC(=O)COc2ccccc2)sc2c1CCCC2 [SW119324] | 10.4 |
| NC(=O)c1ccccc1NC(=O)c1sc2ccccc2c1Cl [SW119800] | 85.4 |
| O=C(Nc1nc2ccc(F)cc2s1)c1sc2ccccc2c1Cl [SW147703] | 33.3 |
| NC(=O)c1c(NC(=O)c2ccc(Br)o2)sc2c1CCCC2 [SW172864] | 12.6 |
| O=C(Nc1ccccc1N1CCCC1)c1sc2ccccc2c1Cl [SW174698] | 4950 |
| O=C(Nc1cccc(F)c1)c1sc2ccccc2c1Cl [SW202550] | 105 |

system: H1155; assay: Cell viability dose-response, H1155; assay type: cell-based; conditions: Homo sapiens, NCI-H1155; Tables 3 and 4; read-out: IC50 (uM) vs indicated non-small cell lung cancer cell line H1155
Protocol: as §1, §2
(§3) With this information, we synthesized and tested a series of small molecules derived in conception from the oxalamide and chromone scaffold including N-acyl ureas, as shown in Tables 6-8. Each compound was tested in a 12-point dose-response study starting at 50 micromolar and decreasing in 3-fold increments to sub-nanomolar concentrations, in duplicate. Additionally, one or more additional cell line was tested in the same way.

| Compound | IC50 [µM] |
| --- | --- |
| NC(=O)c1c(NC(=O)COc2ccccc2)sc2c1CCCC2 [SW119324] | 44.5 |
| O=C(Nc1nc2ccc(F)cc2s1)c1sc2ccccc2c1Cl [SW147703] | 13.3 |

system: H1395; assay: Cell viability dose-response, H1395; assay type: cell-based; conditions: Homo sapiens, NCI-H1395; Tables 3 and 4; read-out: IC50 (uM) vs indicated non-small cell lung cancer cell line H1395
Protocol: as §1, §2, §3

| Compound | IC50 [µM] |
| --- | --- |
| NC(=O)c1c(NC(=O)c2ccc(Br)o2)sc2c1CCCC2 [SW172864] | 44.5 |

system: H1993; assay: Cell viability dose-response, H1993; assay type: cell-based; conditions: Homo sapiens, NCI-H1993; Tables 3 and 4; read-out: IC50 (uM) vs indicated non-small cell lung cancer cell line H1993
Protocol: as §1, §2, §3

| Compound | IC50 [µM] |
| --- | --- |
| CCOC(=O)c1c(NC(=O)c2ccc([N+](=O)[O-])cc2)sc2c1CCCC2 [SW108364-2] | 23.4 |
| NC(=O)c1c(NC(=O)COc2ccccc2)sc2c1CCCC2 [SW119324] | > 8 |
| O=C(Nc1nc2ccc(F)cc2s1)c1sc2ccccc2c1Cl [SW147703] | 13.5 |
| NC(=O)c1c(NC(=O)c2ccc(Br)o2)sc2c1CCCC2 [SW172864] | 0.871 |

system: H2009; assay: Cell viability dose-response, H2009; assay type: cell-based, human; conditions: Homo sapiens, NCI-H2009; Tables 3 and 4; read-out: IC50 (uM) vs indicated non-small cell lung cancer cell line H2009
Procedure, shortened: (§4)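 Proliferation/viability determined by ATP content following 4-day incubation with test compound in RPMI-1640 + 5% serum + 2 mM glutamine. IC50 taken as the concentration halving ATP signal on the dose-response curve.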

| Compound | IC50 [µM] |
| --- | --- |
| COc1ccc2nc(NC(=O)c3ccc([N+](=O)[O-])cc3)sc2c1 [SW001282-2] | 2.81 |
| CCOC(=O)c1c(NC(=O)c2ccc([N+](=O)[O-])cc2)sc2c1CCCC2 [SW108364-2] | 15.8 |
| NC(=O)c1c(NC(=O)COc2ccccc2)sc2c1CCCC2 [SW119324] | 0.881 |
| O=C(Nc1nc2ccc(F)cc2s1)c1sc2ccccc2c1Cl [SW147703] | 34.5 |
| NC(=O)c1c(NC(=O)c2ccc(Br)o2)sc2c1CCCC2 [SW172864] | 3.2 |

system: H2073; assay: Cell viability dose-response, H2073; assay type: cell-based, human; conditions: Homo sapiens, NCI-H2073, Tables 3 and 4; read-out: IC50 (uM) vs indicated non-small cell lung cancer cell line H2073
Procedure, shortened: as §4

| Compound | IC50 [µM] |
| --- | --- |
| COc1ccc2nc(NC(=O)c3ccc([N+](=O)[O-])cc3)sc2c1 [SW001282-2] | 0.752 |
| CCOC(=O)c1c(NC(=O)c2ccc([N+](=O)[O-])cc2)sc2c1CCCC2 [SW108364-2] | 24.3 |
| O=C(Nc1nc2ccc(F)cc2s1)c1sc2ccccc2c1Cl [SW147703] | 1.12 |
| NC(=O)c1c(NC(=O)c2ccc(Br)o2)sc2c1CCCC2 [SW172864] | 0.129 |

system: H2122; assay: Cell viability dose-response, H2122; assay type: cell-based, human; conditions: Homo sapiens, NCI-H2122, Tables 3 and 4; read-out: IC50 (uM) vs indicated non-small cell lung cancer cell line H2122
Procedure, shortened: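 Cells plated at 15% confluence in RPMI-1640 with 5% FBS and 2 mM L-glutamine, treated with compound in a 12-point, 3-fold dilution series from 50 micromolar, in duplicate. ATP measured by Cell Titer Glo after 4 days; IC50 taken from the dose-response curve.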

| Compound | IC50 [µM] |
| --- | --- |
| COc1ccc2nc(NC(=O)c3ccc([N+](=O)[O-])cc3)sc2c1 [SW001282-2] | 0.159 |
| O=C(Nc1ccc(F)cc1)c1sc2ccccc2c1Cl [SW006505] | 1.7 |
| O=C(Nc1cccc(NC(=O)c2sc3ccccc3c2Cl)c1)c1ccco1 [SW023008-2] | 1.27 |
| CCOC(=O)c1c(NC(=O)c2ccc([N+](=O)[O-])cc2)sc2c1CCCC2 [SW108364-2] | 5.92 |
| NC(=O)c1ccccc1NC(=O)c1sc2ccccc2c1Cl [SW119800] | 2.66 |
| O=C(Nc1nc2ccc(F)cc2s1)c1sc2ccccc2c1Cl [SW147703] | 3.3 |
| O=C(Nc1ccccc1N1CCCC1)c1sc2ccccc2c1Cl [SW174698] | 5.12 |
| O=C(Nc1cccc(F)c1)c1sc2ccccc2c1Cl [SW202550] | 1.91 |

same assay, conditions: Tables 3 and 4; read-out: IC50 (uM) vs indicated non-small cell lung cancer cell line H2122

| Compound | IC50 [µM] |
| --- | --- |
| O=C(Nc1cccc(NC(=O)c2sc3ccccc3c2Cl)c1)c1cccc(Cl)c1 [SW023441-2] | 0.473 |

system: H460; assay: Cell viability dose-response, H460; assay type: cell-based; conditions: Homo sapiens, NCI-H460; Tables 3 and 4; read-out: IC50 (uM) vs indicated non-small cell lung cancer cell line H460
Protocol: as §1, §2, §3

| Compound | IC50 [µM] |
| --- | --- |
| COc1ccc2nc(NC(=O)c3ccc([N+](=O)[O-])cc3)sc2c1 [SW001282-2] | 0.512 |
| NC(=O)c1c(NC(=O)c2ccc(Br)o2)sc2c1CCCC2 [SW172864] | 35.1 |

system: HCC4017; assay: Cell viability dose-response, HCC4017; assay type: cell-based, human; conditions: Homo sapiens, HCC4017, Tables 3 and 4; read-out: IC50 (uM) vs indicated non-small cell lung cancer cell line HCC4017
Protocol: as §1, §2, §3

| Compound | IC50 [µM] |
| --- | --- |
| O=C(Nc1ccc(F)cc1)c1sc2ccccc2c1Cl [SW006505] | 262 |
| O=C(Nc1cccc(NC(=O)c2sc3ccccc3c2Cl)c1)c1ccco1 [SW023008-2] | 809 |
| CCOC(=O)c1c(NC(=O)c2ccc([N+](=O)[O-])cc2)sc2c1CCCC2 [SW108364-2] | 35.2 |
| NC(=O)c1ccccc1NC(=O)c1sc2ccccc2c1Cl [SW119800] | 467 |
| NC(=O)c1c(NC(=O)c2ccc(Br)o2)sc2c1CCCC2 [SW172864] | 1.71 |
| O=C(Nc1ccccc1N1CCCC1)c1sc2ccccc2c1Cl [SW174698] | 403 |
| O=C(Nc1cccc(F)c1)c1sc2ccccc2c1Cl [SW202550] | 17.3 |

same assay, conditions: Tables 3 and 4; read-out: IC50 (uM) vs indicated non-small cell lung cancer cell line HCC4017

| Compound | IC50 [µM] |
| --- | --- |
| O=C(Nc1cccc(NC(=O)c2sc3ccccc3c2Cl)c1)c1cccc(Cl)c1 [SW023441-2] | 46 |

system: HCC44; assay: Cell viability dose-response, HCC44; assay type: cell-based, human; conditions: Homo sapiens, HCC44, Tables 3 and 4; read-out: IC50 (uM) vs indicated non-small cell lung cancer cell line HCC44
Procedure, shortened: as §4

| Compound | IC50 [µM] |
| --- | --- |
| COc1ccc2nc(NC(=O)c3ccc([N+](=O)[O-])cc3)sc2c1 [SW001282-2] | 30.1 |
| O=C(Nc1ccc(F)cc1)c1sc2ccccc2c1Cl [SW006505] | 0.657 |
| O=C(Nc1cccc(NC(=O)c2sc3ccccc3c2Cl)c1)c1ccco1 [SW023008-2] | 105 |
| CCOC(=O)c1c(NC(=O)c2ccc([N+](=O)[O-])cc2)sc2c1CCCC2 [SW108364-2] | 35.2 |
| NC(=O)c1c(NC(=O)COc2ccccc2)sc2c1CCCC2 [SW119324] | 34.4 |
| NC(=O)c1ccccc1NC(=O)c1sc2ccccc2c1Cl [SW119800] | 206 |
| O=C(Nc1nc2ccc(F)cc2s1)c1sc2ccccc2c1Cl [SW147703] | 37.5 |
| NC(=O)c1c(NC(=O)c2ccc(Br)o2)sc2c1CCCC2 [SW172864] | 2.52 |
| O=C(Nc1ccccc1N1CCCC1)c1sc2ccccc2c1Cl [SW174698] | 3.06 |
| O=C(Nc1cccc(F)c1)c1sc2ccccc2c1Cl [SW202550] | 0.566 |

same assay, conditions: Tables 3 and 4; read-out: IC50 (uM) vs indicated non-small cell lung cancer cell line HCC44

| Compound | IC50 [µM] |
| --- | --- |
| O=C(Nc1cccc(NC(=O)c2sc3ccccc3c2Cl)c1)c1cccc(Cl)c1 [SW023441-2] | 27.7 |

system: HCC95; assay: Cell viability dose-response, HCC95; assay type: cell-based; conditions: Homo sapiens, Tables 3 and 4, read-out: IC50 (uM) vs indicated non-small cell lung cancer cell line HCC95
Protocol: as §1, §2, §3

| Compound | IC50 [µM] |
| --- | --- |
| COc1ccc2nc(NC(=O)c3ccc([N+](=O)[O-])cc3)sc2c1 [SW001282-2] | 19.6 |
| NC(=O)c1c(NC(=O)COc2ccccc2)sc2c1CCCC2 [SW119324] | 28.5 |
| O=C(Nc1nc2ccc(F)cc2s1)c1sc2ccccc2c1Cl [SW147703] | 32.4 |
| NC(=O)c1c(NC(=O)c2ccc(Br)o2)sc2c1CCCC2 [SW172864] | 43.6 |
